Reference: patent US10603273B2, “Membrane-adherent self-assembled systems for treatment of ocular disorders” (Integral Biosystems LLC, priority 2014, dated 2020)
Values after ≈ are worked out from the molar mass of the structure shown. Read-outs that look alike come from different tables or passages of the source.

What was measured:
[1] = In-vitro drug release, dialysis device, 1% HP-β-CD phosphate buffer pH 7.4, 37° C.; assay type: in vitro ADME; conditions: 0.1% nanostructured dispersion; released over 3 hours
Procedure: In-vitro drug release was determined at 37° C., pH 7.4 as follows: The Phase III dispersion (1 g) was transferred into a Spectra/Pore Float-A-Lyzer G2 dialysis device, which was then placed into a 50 mL locking centrifuge tube containing 40 g of 1% hydroxylpropyl-β-cyclodextrin (HP-β-CD) in phosphate buffer at pH 7.4, 37° C. The entire assembly was loaded onto a Robbins Scientific Model 400 rotating incubator. At each time point, 1 mL of sample was retrieved and fresh buffer added to replace the volume removed. Samples were measured for drug content using HPLC at λmax=239 nm.

freshly excised cornea = assay: Ex-vivo corneal permeability, Franz-Cell diffusion chamber; assay type: in vitro ADME, calf; conditions: % of applied drug in 22 hours, 37° C.
Text: Ex-vivo corneal permeability testing is a useful tool to screen formulations for their ability to penetrate ocular tissues. Using freshly excised cornea, formulations can be tested for their ability to diffuse across the cornea membrane. The ability to diffuse through biological membranes is directly related to the formulation excipients, its physical state (e.g., suspension, solution, emulsion, dispersion) and its partition coefficient (P) and log P. Fresh calf eyes were obtained from a nearby slaughterhouse and the corneas carefully excised using sterile technique. The corneas must be freshly excised and used within 1-2 hours. The corneas were excised in a sterilized laminar flow hood, in a Class 100 environment. The excisions were performed by first draining the aqueous humor followed by carefully cutting out the cornea using a scalpel for the initial incision; forceps and scissors were used to cut the remaining tissue. […] The volume was recorded, and the remaining cells filled. […] Samples were added in rapid succession by depositing 200 μL of the formulation into each donor chamber using a calibrated pipet and the times recorded. […] The samples were analyzed for API content by HPLC as described above. […] Flux can be calculated by the formula: J=Q/(A·t), where Q is the quantity of compound traversing the membrane in time t, and A is the area of exposed membrane in cm^2. […]

[2] = Encapsulation efficiency (centrifugation, HPLC); assay type: physicochemical; conditions: 0.1% nanostructured dispersion (Phase III); mg drug per g dispersion
Procedure: Encapsulation efficiency (mg/G) was measured by placing 1.0 g of drug-containing Phase III into a 1.5 mL centrifuge tube and centrifuging it at 6000 rpm for 10 minutes using an Eppendorf Centrifuge 5145D at room temperature. 100 μL of the centrifugate was transferred to an HPLC vial containing 900 μL of 75% acetonitrile/25% water. The samples were measured for concentration of drug, e.g., dexamethasone, by HPLC at λmax=239 nm. The concentration was calculated as mg drug per g of the Phase III dispersion.

[3] = Solubility of API in Phase I excipient mixtures; assay type: physicochemical
Procedure: Solubility of APIs were examined in different Phase I mixtures.
Initially, the solubility of fluticasone propionate was determined in 10 g of Phase I composed of a 7:3 (w/w) mixture of PHOSAL™ Medium Chain Triglycerides (“MCT”) and polyethylene glycol-400 (PEG-400). MCT, a mixture of phosphatidylcholine and medium chain triglycerides, is the hydrophobic component and PEG-400 is the hydrophilic component in this exemplary Phase I. MCT and PEG-400 were added into a glass vial and the mixture was vortexed for 2 min until the components formed a homogeneous mixture. Fluticasone propionate was added in an incremental manner and stirred at 850 rpm using a Scilogex MSH 280 Pro hot stir plate at a temperature of 37° C. Stirring was continued until saturation solubility was reached.
In order to increase the solubility of the fluticasone propionate in Phase I, mineral oil (Drakeol 600LT) was added into the composition. A Phase I containing MCT: PEG-400: mineral oil weight ratio of 7:2:1 was prepared as described above. The total amount of Phase I was 10 g. Fluticasone propionate was added in an incremental manner and the mixture was stirred for 5 min. and vortexed for 5 min after each addition of fluticasone propionate into the mixture. In this Phase I, 98.2 mg of fluticasone propionate dissolved completely in 37 min.
Another Phase I mixture containing PEG-400, polypropylene glycol (PPG), and cremophor in a weight ratio 2.9:7:0.1 was also evaluated. Cremophor was used because it is widely used as a co-solvent to enhance the solubility of poorly soluble drugs.
In this Phase I, 200.30 mg of fluticasone propionate was completely dissolved in 10 g when stirred at 1200 rpm for 2 min at 45° C.
Another Phase I mixture was produced containing 30% w/w PEG-400, 60% w/w PPG, 5% w/w MCT, 0.25% w/w cetyl alcohol, and 4.75% w/w ethanol. In 10 g of this Phase I, 180 mg fluticasone propionate dissolved completely after stirring at 1280 rpm for 15 min at 45° C.
Triamcinolone acetonide is a […] anti-inflammatory drug having low aqueous solubility.
A Phase I containing 30% w/w PEG-400, 20% w/w PPG, 0.5% w/w cetyl alcohol, 9.5% w/w ethanol, 5% w/w MCT and 35% w/w Castor oil was produced. Triamcinolone acetonide was added incrementally and the mixture stirred at 840 rpm using a Scilogex MSH 280 Pro set to 45° C.

[4] = Particle size distribution (Horiba particle size analyzer); assay type: physicochemical; conditions: nanodispersion of the named drug, drug delivery platform of Example 1
Procedure: Particle sizing was carried out by adding approximately 20 μL of the Phase III dispersion in a solution of 2% w/w glycerin, 0.1% w/w sodium pyrophosphate decahydrate. Particle size distribution of the Phase III nano-dispersions were measured using a Horiba LA-950V2 particle size analyzer at room temperature, i.e., 22-25° C.

[5] = Solubility of fluticasone propionate in nanostructured dispersions and single excipients; assay type: physicochemical; conditions: for solubility: oil or lipid
Procedure: Phase I was prepared containing PEG-400 at 20%, PPG at 10%, cetyl alcohol at 10%, MCT at 1%, PEG-stearate at 7%, poloxamer 407 at 2.22%, tyloxapol at 1%, polysorbate 80 at 1%, castor oil at 38%, and fluticasone propionate at 1-2%.
The composition of Phase II was sodium phosphate monobasic (0.017%), sodium phosphate dibasic (0.052%), sodium hyaluronate (0.15%), and dH2O (99.78%).
Phase I was mixed with Phase II at a weight ratio of 1:9.
The concentration of fluticasone propionate achievable in this formulation was 0.1-0.2%.
The solubility of fluticasone propionate in cetyl alcohol was 0.3 mg/ml. As just described, the final dispersion has a fluticasone propionate concentration of 1-2 mg/ml (0.1-0.2%).
In this example, cholesterol was added to obtain a higher concentration of hydrophobic excipients. The composition of Phase I was PEG-400 (20%), PPG (10%), cetyl alcohol (10%), cholesterol (2%), MCT (10%), PEG-stearate (5%), poloxamer 407 (2.22%), tyloxapol (1%), polysorbate 80 (1%), castor oil (36.9%), and fluticasone propionate (1-5%).
The final concentration of fluticasone propionate achievable in this formulation is 0.1-0.5% The maximum amount of fluticasone propionate expected to be solubilized by adding up the amount solubilized in each separate excipient is 0.06%.

## CCOC(=O)O[C@]1(C(=O)OCCl)CC[C@H]2[C@@H]3CCC4=CC(=O)C=C[C@]4(C)[C@H]3[C@@H](O)C[C@@]21C [loteprednol etabonate]
[1]
  in vitro drug release: 35%
Freshly excised cornea
  corneal permeability, drug released into the receptor solution: 36%
[2]
  amount of drug encapsulated: 1.24 mg/G

## C[C@@H]1C[C@H]2[C@@H]3CCC4=CC(=O)C=C[C@]4(C)[C@@]3(F)[C@@H](O)C[C@]2(C)[C@@]1(O)C(=O)CO [dexamethasone]
[1]
  in vitro drug release: at least 25%

## CCC(=O)O[C@]1(C(=O)SCF)[C@H](C)C[C@H]2[C@@H]3C[C@H](F)C4=CC(=O)C=C[C@]4(C)[C@@]3(F)[C@@H](O)C[C@@]21C [fluticasone propionate]
[3]; in 10 g of 5% cetyl alcohol in ethanol, 1200 rpm, 2 min, 45° C.
  amount completely dissolved in Phase I: 200.30 mg
[3]; in 10 g of Phase I, MCT:PEG-400:mineral oil 7:2:1, dissolved in 37 min
  amount dissolved completely in Phase I: 98.2 mg
[3]; in 10 g of Phase I: 30% PEG-400, 60% PPG, 5% MCT, 0.25% cetyl alcohol, 4.75% ethanol, 1280 rpm, 45° C.
  amount dissolved in Phase I: 180 mg
[4]
  D50: 0.141 μm
  D90: 0.181 μm
[5]; Example 8 excipients
  maximum concentration expected from adding the solubilized contribution of each excipient: 0.05%
[5]; Example 8 final dispersion
  fluticasone propionate concentration of final dispersion: 1 to 2 mg/mL
[5]; Example 8 formulation, Phase I:Phase II 1:9, by weight
  concentration of fluticasone propionate achievable in formulation: 0.1-0.2%
[5]; Example 9 excipients
  maximum amount expected to be solubilized by adding up the amount solubilized in each separate excipient: 0.06%
[5]; Example 9 formulation with cholesterol, Phase I:Phase II 1:9
  final concentration of fluticasone propionate achievable in formulation: 0.1-0.5%
[5]; PHOSAL MCT alone, read-out: solubility in MCT
  solubility: 150 µg/mL (≈ 300 µM)
[5]; cetyl alcohol alone, read-out: solubility in cetyl alcohol
  solubility: 300 µg/mL (≈ 599 µM)

## CC1(C)O[C@@H]2C[C@H]3[C@@H]4CCC5=CC(=O)C=C[C@]5(C)[C@@]4(F)[C@@H](O)C[C@]3(C)[C@]2(C(=O)CO)O1 [triamcinolone acetonide]
[3]; in 10 g of Phase I: 30% PEG-400, 20% PPG, 0.5% cetyl alcohol, 9.5% ethanol, 5% MCT, 35% castor oil, 840 rpm, 45° C.
  saturation solubility in Phase I: 230 mg
